# In ChEMBL document CHEMBL1201862, “PubChem BioAssay data set” (2004):
# Calls of active or inactive are those of the source.
# Key:
# [1] = target: FAD-linked sulfhydryl oxidase ALR (Homo sapiens, UniProt P55789); test: inhibitors of human ALR sulfhydryl oxidase, dose response, biochemical, H2O2 detection, luminescence, cherry-pick (AID 493248)
# [2] = target: T1, Zinc finger protein mex-5 (Caenorhabditis elegans, UniProt Q9XUB2); test: MEX-5/TCR-2 RNA interaction inhibitors, dose response, biochemical, C. elegans, fluorescence polarization (AID 1960)
# T1 sequence (Q9XUB2 whole entry): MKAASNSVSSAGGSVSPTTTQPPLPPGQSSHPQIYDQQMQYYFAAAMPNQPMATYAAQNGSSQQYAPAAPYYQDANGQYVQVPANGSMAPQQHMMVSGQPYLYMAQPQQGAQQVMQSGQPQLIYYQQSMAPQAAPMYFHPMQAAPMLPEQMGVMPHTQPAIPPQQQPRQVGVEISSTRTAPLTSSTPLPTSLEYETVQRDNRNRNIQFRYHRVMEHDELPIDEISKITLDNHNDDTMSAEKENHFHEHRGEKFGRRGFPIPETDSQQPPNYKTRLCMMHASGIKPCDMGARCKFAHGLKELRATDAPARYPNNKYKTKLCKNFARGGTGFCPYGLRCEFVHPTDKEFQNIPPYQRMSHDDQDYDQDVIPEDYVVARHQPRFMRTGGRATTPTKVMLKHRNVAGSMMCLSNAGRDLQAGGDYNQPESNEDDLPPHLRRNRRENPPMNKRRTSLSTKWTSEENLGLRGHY
# [3] = target: T2, RNA-binding protein pos-1 (Caenorhabditis elegans, UniProt G5EF15); test: inhibitors of POS-1/mex-3 RNA binding, dose response, biochemical, fluorescence polarization (AID 1964);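 further: purified POS-1 fused to maltose binding protein made in E. coli; potency of compounds blocking POS-1 binding to fluorescent RNA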
# T2 sequence (G5EF15 whole entry): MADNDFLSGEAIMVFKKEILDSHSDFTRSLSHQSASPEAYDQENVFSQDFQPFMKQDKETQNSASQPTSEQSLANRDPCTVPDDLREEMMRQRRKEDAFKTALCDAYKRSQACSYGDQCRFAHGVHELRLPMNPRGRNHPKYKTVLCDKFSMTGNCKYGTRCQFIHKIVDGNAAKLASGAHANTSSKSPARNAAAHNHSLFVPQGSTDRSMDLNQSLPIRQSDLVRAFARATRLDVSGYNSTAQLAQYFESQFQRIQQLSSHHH
# [4] = system: Streptococcus sp. 'group A'; test: growth inhibition of control SK(-) GAS strain, dose response, counter-screen for streptokinase expression inhibitor project, luminescence, kanamycin, BacTiterGlo, confirmation (AID 1900); assay type: functional, organism-based
# [5] = target: T3, Rac GTPase-activating protein 1 (Homo sapiens, UniProt Q9H0H5); test: MgcRacGAP GTPase-activating activity inhibitors, confirmation, biochemical, ADP Hunter fluorescence, primary and confirmatory (AID 624330); assay type: functional
# T3 sequence (Q9H0H5 whole entry): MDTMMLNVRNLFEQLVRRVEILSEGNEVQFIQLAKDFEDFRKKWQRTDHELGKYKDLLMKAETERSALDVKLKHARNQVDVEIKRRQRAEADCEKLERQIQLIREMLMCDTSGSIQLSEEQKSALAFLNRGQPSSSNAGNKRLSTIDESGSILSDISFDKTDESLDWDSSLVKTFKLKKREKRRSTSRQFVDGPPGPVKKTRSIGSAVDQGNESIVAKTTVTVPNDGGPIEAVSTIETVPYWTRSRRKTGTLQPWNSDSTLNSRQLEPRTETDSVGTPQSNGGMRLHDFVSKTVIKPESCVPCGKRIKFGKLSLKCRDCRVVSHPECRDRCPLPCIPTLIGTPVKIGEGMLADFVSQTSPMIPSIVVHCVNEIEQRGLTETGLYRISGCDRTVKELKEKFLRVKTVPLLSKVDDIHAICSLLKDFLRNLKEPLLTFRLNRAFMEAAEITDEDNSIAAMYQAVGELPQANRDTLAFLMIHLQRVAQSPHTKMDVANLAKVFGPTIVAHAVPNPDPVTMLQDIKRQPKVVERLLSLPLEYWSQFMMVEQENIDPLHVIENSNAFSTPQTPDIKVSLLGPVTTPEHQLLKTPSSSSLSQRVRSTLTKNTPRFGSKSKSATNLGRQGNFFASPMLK
# [6] = growth suppression of PTEN-null colon cells, dose response, cell-based, HCT116 PTEN knockout (AID 1047); assay type: functional;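 further: HCT116 colon tumor cells with PTEN knocked out; cells exposed to compound for 60 hours before readout; potency for loss of cell viability measured by luminescence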
# [7] = growth suppression of beta-catenin-knockout colon cells, dose response, cell-based, HCT116, human colon tumor (AID 1045); assay type: functional;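 further: HCT116 colon tumor cells with beta catenin knocked out; cells exposed to compound for 60 hours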
# Streptokinase A = target: T4, Streptokinase A (Streptococcus pyogenes serotype M1, UniProt P10520); test: S. pyogenes streptokinase expression inhibitors, potency, dose response, plasminogen activation absorbance, OD405 (AID 1914); assay type: functional, Streptococcus pyogenes M1 GAS;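 further: secreted streptokinase activity via plasminogen activation per viability signal from cell pellet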
# T4 sequence (P10520 whole entry): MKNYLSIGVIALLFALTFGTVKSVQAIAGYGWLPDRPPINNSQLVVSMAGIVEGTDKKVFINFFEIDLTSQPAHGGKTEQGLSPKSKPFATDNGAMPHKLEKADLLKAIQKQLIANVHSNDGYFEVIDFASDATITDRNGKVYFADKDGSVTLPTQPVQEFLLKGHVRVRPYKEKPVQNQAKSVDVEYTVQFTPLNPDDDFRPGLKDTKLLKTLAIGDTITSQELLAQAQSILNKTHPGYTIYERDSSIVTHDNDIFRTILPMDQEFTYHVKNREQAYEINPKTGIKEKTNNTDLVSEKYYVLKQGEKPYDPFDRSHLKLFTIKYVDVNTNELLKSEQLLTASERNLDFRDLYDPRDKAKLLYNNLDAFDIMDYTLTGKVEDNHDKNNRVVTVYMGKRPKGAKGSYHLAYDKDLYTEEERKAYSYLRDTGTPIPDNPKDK
# Streptococcus = test: Group A Streptococcus viability loss, dose response, counter-screen for streptokinase expression inhibitor project, luminescence, BacTiterGlo (AID 1915); assay type: functional, organism-based;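 further: potency for reduction of bacterial viability or growth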
# [8] = MC4R antagonists, dose response, counter-screen for LGR2 antagonist project, cell-based, plate reader, cherry pick (AID 743444); assay type: functional;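 further: transfected HEK 293 cells stimulated with alpha-MSH peptide; potency of inhibitors of the alpha-MSH evoked signal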
# [9] = LGR2 antagonists, dose response, cell-based, HEK293, CRE-luciferase reporter, cherry pick, set 2 (AID 743343); assay type: functional;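 further: transfected cells were stimulated with diluted bursicon conditioned medium after compound addition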
# [10] = target: T5, Corticotropin-releasing factor receptor 2/Corticotropin-releasing factor-binding protein (Homo sapiens, UniProt P24387+Q13324); test: activators of CRF receptor 2 with binding protein – uHTS hits, confirmation (AID 602473); assay type: functional; settings: read-out: EC50_Mean
# T5 sequence (Q13324 whole entry): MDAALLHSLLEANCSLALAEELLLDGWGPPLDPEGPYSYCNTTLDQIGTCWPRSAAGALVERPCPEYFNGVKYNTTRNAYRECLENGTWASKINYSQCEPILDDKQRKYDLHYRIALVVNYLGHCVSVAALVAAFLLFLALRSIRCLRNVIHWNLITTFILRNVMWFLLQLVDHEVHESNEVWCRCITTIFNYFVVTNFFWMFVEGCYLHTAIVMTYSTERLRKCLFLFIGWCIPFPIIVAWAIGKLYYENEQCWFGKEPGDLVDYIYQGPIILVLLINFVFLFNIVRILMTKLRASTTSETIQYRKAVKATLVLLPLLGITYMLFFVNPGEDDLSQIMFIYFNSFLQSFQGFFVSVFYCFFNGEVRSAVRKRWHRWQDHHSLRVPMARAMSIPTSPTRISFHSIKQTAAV
# T5 sequence (P24387 whole entry): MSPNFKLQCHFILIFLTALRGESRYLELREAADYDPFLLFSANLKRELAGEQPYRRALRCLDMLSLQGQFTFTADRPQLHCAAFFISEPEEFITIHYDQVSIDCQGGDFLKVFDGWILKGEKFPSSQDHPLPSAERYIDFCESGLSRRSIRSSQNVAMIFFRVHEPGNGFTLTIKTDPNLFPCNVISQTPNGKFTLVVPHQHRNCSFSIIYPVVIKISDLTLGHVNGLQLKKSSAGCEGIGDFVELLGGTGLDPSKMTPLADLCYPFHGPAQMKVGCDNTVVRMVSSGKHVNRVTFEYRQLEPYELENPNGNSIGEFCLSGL
# [11] = C. albicans growth with fluconazole, confirmation, fluorescence, retest (AID 2467); assay type: functional, cell-based
# [12] = target: T6, Ubiquitin-conjugating enzyme E2 N (Homo sapiens, UniProt P61088); assay type: functional;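 further: Dose-response confirmation in a TR-FRET assay detecting UBC13-driven polyubiquitin chain formation, inhibition measured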
# T6 sequence (P61088 whole entry): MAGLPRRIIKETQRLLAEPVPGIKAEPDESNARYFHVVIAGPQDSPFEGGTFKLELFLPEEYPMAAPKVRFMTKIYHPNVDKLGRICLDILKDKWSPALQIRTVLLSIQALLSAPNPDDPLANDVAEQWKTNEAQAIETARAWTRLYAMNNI
# [13] = NIH-3T3 fibroblast cytotoxicity, dose response, cytotoxicity control, cell-based, fluorescence, Alamar Blue, secondary assay (AID 2327); assay type: functional;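 further: NIH-3T3 mouse fibroblasts cultured with fluconazole at 8 µg/mL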
# INS1 = test: beta cell apoptosis inhibitors, cytokine rescue, dose response, luminescence, retest (AID 449756); assay type: functional, cell-based; settings: Rattus norvegicus;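 further: cell death triggered by IL-1 beta plus TNF-alpha plus IFN-gamma mixture; protective hits raise ATP signal compared with cytokine alone wells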
# FAD-linked sulfhydryl oxidase ALR, sequence (P55789 whole entry): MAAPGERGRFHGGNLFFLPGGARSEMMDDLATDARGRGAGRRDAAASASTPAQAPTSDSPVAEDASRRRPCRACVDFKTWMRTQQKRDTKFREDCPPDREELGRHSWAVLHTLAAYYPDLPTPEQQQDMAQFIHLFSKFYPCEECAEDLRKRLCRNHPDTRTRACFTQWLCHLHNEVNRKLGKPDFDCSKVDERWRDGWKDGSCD
smiles,measurement,setting,value
CCCc1cc(C(N)=O)c(NC(=O)c2ccoc2C)s1,AC50,[1],2.74 µM (active)
CC1CN(C2CC(C)(C)NC(C)(C)C2)CCC1=O (stereo not drawn),EC50,[2],> 300 µM (not active)
same,EC50,[3],> 300 µM (not active)
COc1cc2nc(S)n3nc(CCn4nc(C)cc4C)nc3c2cc1OC,EC50,[4],28.4 µM (active)
same,IC50,[5],23.2 µM (active)
same,EC50,[6],14.5 µM (active)
same,EC50,[7],25 µM (active)
same,EC50,Streptokinase A,> 150 µM (not active)
same,EC50,Streptococcus,> 150 µM (not active)
c1ccc(-n2ncc3c(N4CCCCC4)ncnc32)cc1,AC50,[8],2.83 µM (active)
same,AC50,[9],1.94 µM (active)
Cc1nc(SCc2cccnc2)nc(O)c1C,AC50,[1],1.18 µM (active)
[O-][S+](c1ccc2ccccc2c1)c1cnns1 (stereo not drawn),AC50,[1],0.769 µM (active)
COc1ccc(N2CCN(CCCNC(=O)C3CCCN(S(=O)(=O)c4c[nH]cn4)C3)CC2)cc1 (stereo not drawn),AC50,[1],25.4 µM (active)
O=C1c2ccccc2C(=O)N1c1ncc(Cc2ccc(Cl)cc2)s1,EC50,[10],2.43 µM (active)
O=C(O)c1ccc(NC(=O)C2CCCCC2)cc1,EC50,[10],> 53 µM (inactive)
CCCCCc1ccc(OCCCC[n+]2ccccc2)c(CCCCC)c1,EC50,[4],3.85 µM (active)
same,EC50,[11],< 0.03 µM (active)
same,IC50,[12],> 20 µM (inactive)
same,EC50,[13],> 160 µM (inactive)
same,EC50,Streptokinase A,27.1 µM (active)
same,EC50,Streptococcus,8.33 µM (active)
same,AC50,INS1,2.79 µM (active)
